Source: patent US20170290774A1, “NEUROKININ-1 RECEPTOR ANTAGONIST COMPOSITION FOR TREATMENT OF DISEASES AND CONDITIONS OF THE RESPIRATORY TRACT” (PLUS VITECH, S.L., priority 2014, published 2017)

Columns and labels:
Assay type in all cases: physicochemical
Conditions in all cases: 25° C.
[1] = Saturation concentration in different oils (soy, sunflower, rapeseed)
Description: (§1) Each of said mixtures was continuously and gently stirred for 10 minutes at ambient temperature (25° C.) and then maintained at rest for 60 minutes. The saturation concentration was considered to be that which was immediately less than a concentration where deposition was observed, but in which no deposition of the active ingredient was observed.

[2] = Saturation concentration in olive oil:ethanol (9:1)
Description: as §1

[3] = Saturation concentration of NK1 receptor antagonists in olive oil
Description: as §1, with “lower in the aforementioned series” for “less”

Saturation concentration ([1]; Rapeseed oil) [nM] | Saturation concentration ([1]; Soy oil) [nM] | Saturation concentration ([1]; Sunflower oil) [nM] | Saturation concentration [2] [nM] | Saturation concentration [3] [nM] | Structure (SMILES)
70 | 60 | 60 | 65 | 40 | CC(=O)N1CCN([C@H]2CCN(C(=O)N(C)[C@H](C)c3cc(C(F)(F)F)cc(C(F)(F)F)c3)[C@@H](c3ccc(F)cc3C)C2)CC1 [Casopitant]
90 | 90 | 80 | 100 | 80 | CC(=O)N[C@@H](Cc1c[nH]c2ccccc12)C(=O)OCc1cc(C(F)(F)F)cc(C(F)(F)F)c1 [L-732,138]
